In one test the target is T1, CK1δ R115H (Homo sapiens, UniProt P48730, R115H).
T1 sequence (P48730 1-415 R115H): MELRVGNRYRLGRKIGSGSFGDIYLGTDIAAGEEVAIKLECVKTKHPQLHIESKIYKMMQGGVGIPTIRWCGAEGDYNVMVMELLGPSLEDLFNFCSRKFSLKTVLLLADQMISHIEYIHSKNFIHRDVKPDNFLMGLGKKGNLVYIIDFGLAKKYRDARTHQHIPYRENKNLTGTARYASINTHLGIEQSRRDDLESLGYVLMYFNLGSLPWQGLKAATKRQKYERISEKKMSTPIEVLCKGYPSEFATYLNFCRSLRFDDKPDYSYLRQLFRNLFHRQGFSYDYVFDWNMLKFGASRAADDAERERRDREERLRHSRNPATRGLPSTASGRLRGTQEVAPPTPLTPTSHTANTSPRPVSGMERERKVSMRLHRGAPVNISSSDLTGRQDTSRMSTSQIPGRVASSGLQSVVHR
Put plainly: in vitro kinase assay, CK1δ mutant R115H. The class given is biochemical. Conditions: inhibitor at IC50 concentration previously determined for CK1δ WT; DMSO control = 100%; adjusted to WT = 50%; mean ± SD. On the procedure:
(§1) Overexpression and purification of GST-CK1δ fusion proteins, either wild type or mutant, were performed as described previously.
(§2) Each kinase assay reaction was performed in kinase buffer (25 mM Tris-HCl (pH 7.5), 10 μM ATP, 10 mM MgCl2, 100 μM EDTA) in presence of purified GST-CK1δ kinase as source of enzyme (either wild type or mutant), an assay-specific substrate (α-casein, GST-p53^1−64, or GST-β-catenin^1−181), and radiolabeled ATP (2 μCi [γ-^32P]-ATP). For performing Michaelis–Menten analysis increasing substrate concentrations were used (α-casein: 0.39−25 μM; GST-p53^1−64: 0.09−1.87 μM; GST-β-catenin^1−181: 0.07−1.32 μM). For biological evaluation of small molecule inhibitors (SMIs), each inhibitor compound was either tested at 10 μM concentration for initial screening or by using a dilution series (0.005−10 µM) for determination of IC50 values. DMSO was used as control. Reactions were incubated for 30 min at 30 °C and reactions were stopped using 5x SDS-loading buffer (250 mM Tris-HCl [pH 6.8], 25% (v/v) β-mercaptoethanol (MSH), 50% (v/v) glycerol, 10% (w/v) SDS, 0.5% (w/v) bromphenol blue). Subsequently, samples were separated by SDS-PAGE using 12.5% acrylamide gels, stained with Coomassie, and phosphorylated substrates were visualized on X-ray film. Incorporation of radiolabeled phosphate was quantified by scintillation counting of Coomassie-stained substrate bands. Defined dilutions of the reaction master mix were counted as well in order to convert results obtained as counts per minute (CPM) to units of transferred phosphate in pmol/min. Michaelis–Menten analysis was performed using GraphPad Prism 6 (GraphPad Software, San Diego, CA, USA).

In a further test the target is T2, CK1δ R299Q (Homo sapiens, UniProt P48730, R299Q).
T2 sequence (P48730 1-415 R299Q): T1 sequence (P48730 1-415 R115H) with H115R, R299Q
The experiment in a line: in vitro kinase assay, CK1δ mutant R299Q. The class given is biochemical. The following applies: inhibitor at IC50 concentration previously determined for CK1δ WT; DMSO control = 100%; adjusted to WT = 50%; mean ± SD. The protocol:
as §1, §2

Residue numbers refer to the chain shown, from its start.

As for `O=C(Nc1nc2ccc(C(F)(F)F)cc2[nH]1)c1csc(NC(=O)c2ccccc2OC(F)(F)F)n1` [Bischof-5], on CK1δ R115H, the “Residual activity of CK1δ R115H” value is reported as 36 ± 10%. At CK1δ R299Q, the “Residual activity of CK1δ R299Q” value worked out at 64 ± 22%.
On to `Cc1ccc2nc(NC(=O)CSc3nc4c(c(=O)n3-c3ccccc3)SCC4)sc2c1` [IWP-2], for which the “Residual activity of CK1δ R115H” value at CK1δ R115H is recorded as 71 ± 34%. Moreover, the “Residual activity of CK1δ R299Q” value on CK1δ R299Q was 36 ± 20%.
For the compound `COc1ccccc1-n1c(SCC(=O)Nc2nc3ccc(C)cc3s2)nc2c(c1=O)SCC2` [IWP-4], the “Residual activity of CK1δ R115H” value at CK1δ R115H stood at 46 ± 5%. Further, the “Residual activity of CK1δ R299Q” value at CK1δ R299Q was determined as 91 ± 60%.

Source of the values: publication PMC6941124 (International Journal of Molecular Sciences, 2019).
